{
  "source": "patent US20120027687A1",
  "about": "“FATTY ACID PROTEIN KINASE C ACTIVATORS AND ANTICOAGULANT FOR THE TREATMENT OF STROKE” (priority 2010, published 2012)",
  "key": {"[1]": {"tested_on": "SH-SY5Y neuroblastoma cells", "experiment": "Cell survival and proliferation (alamar Blue, CyQuant)", "format": "cell-based, human", "conditions": "alamar Blue and CyQuant staining", "protocol": "Aβ Measurement and Cell Viability Assay. Aβ was measured using an Aβ 1-42 human fluorimetric ELISA kit (Invitrogen) according to the manufacturer's instructions. Results were measured in a Biotek Synergy HT microplate reader. AlamarBlue and CyQuant NF (Invitrogen) according to the manufacturer's instructions."}, "PKCδ": {"target": "T1, PKCδ (Homo sapiens, UniProt Q05655)", "T1 construct": "purchased Calbiochem", "T1 sequence (Q05655 whole entry)": "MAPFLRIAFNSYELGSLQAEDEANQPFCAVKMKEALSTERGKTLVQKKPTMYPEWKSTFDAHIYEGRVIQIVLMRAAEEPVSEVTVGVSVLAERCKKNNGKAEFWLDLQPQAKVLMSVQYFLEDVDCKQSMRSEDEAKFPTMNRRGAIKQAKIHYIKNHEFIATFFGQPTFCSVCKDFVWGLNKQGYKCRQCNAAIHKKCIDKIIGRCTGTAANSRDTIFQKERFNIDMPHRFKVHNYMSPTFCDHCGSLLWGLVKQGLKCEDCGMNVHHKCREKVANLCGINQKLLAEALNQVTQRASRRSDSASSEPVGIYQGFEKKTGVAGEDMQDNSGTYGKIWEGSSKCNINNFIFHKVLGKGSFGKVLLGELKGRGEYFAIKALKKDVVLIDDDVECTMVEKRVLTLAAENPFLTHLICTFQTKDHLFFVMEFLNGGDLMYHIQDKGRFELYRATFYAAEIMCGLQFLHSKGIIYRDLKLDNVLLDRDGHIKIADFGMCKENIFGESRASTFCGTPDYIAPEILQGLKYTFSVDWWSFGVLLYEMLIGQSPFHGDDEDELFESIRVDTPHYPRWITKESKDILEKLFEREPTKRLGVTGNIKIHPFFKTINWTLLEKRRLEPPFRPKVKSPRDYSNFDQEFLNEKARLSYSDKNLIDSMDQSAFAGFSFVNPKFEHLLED", "experiment": "PKC assay with purified PKCδ", "format": "biochemical", "conditions": "about 1-100 μM, data not shown", "protocol": "Protein kinase C assay. Rat hippocampal cells were cultured and scraped in 0.2 ml homogenization buffer (20 mM Tris-HCl, pH 7.4, 50 mM NaF, 1 μg/ml leupeptin, and 0.1 mM PMSF) and homogenized by sonication a Marsonix microprobe sonicator (5 sec, 10W). To measure PKC, 10 μl of cell homogenate or purified PKC isozyme (purchased from Calbiochem) was incubated for 15 min at 37° C. in the presence of 10 μM histones, 4.89 mM CaCl2, 1.2 μg/μl phosphatidyl-L-serine, 0.18 μg/μl 1,2-dioctanoyl-sn-glycerol, 10 mM MgCl2, 20 mM HEPES (pH 7.4), 0.8 mM EDTA, 4 mM EGTA, 4% glycerol, 8 μg/ml aprotinin, 8 μg/ml leupeptin, and 2 mM benzamidine. 0.5 Ci [^γ32P]ATP was added and ^32P-phosphoprotein formation was measured by adsorption onto phosphocellulose as described previously. Nelson and Alkon, J. Neurochemistry (1995), vol. 65, pp. 2350-2357. For measurements of activation by BR-101 (DCP-LA) and similar compounds. PKC activity was measured in the absence of diacylglycerol and phosphatidylserine and PKC δ, ε, η, and μ were measured in the absence of added EGTA and CaCl2, as described by Kanno et al. (J. Lipid Res. 2006, vol. 47, pp. 1146-1150). […]\n(§1) To determine their PKC isozyme specificity, fatty acid derivatives were preincubated with purified PKC for five minutes and the PKC activity was measured radiometrically."}, "PKCα": {"target": "T2, PKCα (Homo sapiens, UniProt P17252)", "T2 construct": "purchased Calbiochem", "experiment": "PKC assay with PKCα", "format": "biochemical", "conditions": "data not shown", "protocol": "PKC assay. Recombinant PKC (1 ng of PKCα or PKCε isoform) was mixed with BR-101 (DCP-LA) in the presence of 10 micromolar histones, 5 mM CaCl2, 1.2 μg/μl phosphatidyl-L-serine, 0.18 μg/μl 1,2-dioctanoyl-sn-glycerol (DAG), 10 mM MgCl2, 20 mM HEPES (pH 7.4), 0.8 mM EDTA, 4 mM EGTA, 4% glycerol, 8 μg/ml aprotinin, 8 μg/ml leupeptin, and 2 mM benzamidine. 0.5 micro Ci[^γ32P]ATP was added. The incubation mixture was incubated for 15 min at 37 degrees in a total volume of 10 microliters. The reaction was stopped by spotting the reaction mixtures on 1×2 cm strips of cellulose phosphate paper (Whatman P81) and immediately washing twice for 1 hr in 0.5% H3PO4. The cellulose phosphate strips were counted in a scintillation counter. In some experiments, phosphatidylserine, diacylglycerol, and/or calcium were removed.\nProtein kinase C assay. […] 0.5 Ci [^γ32P]ATP was added and ^32P-phosphoprotein formation was measured by adsorption onto phosphocellulose as described previously. […] PKC activity was measured in the absence of diacylglycerol and phosphatidylserine and PKC δ, ε, η, and μ were measured in the absence of added EGTA and CaCl2, as described by Kanno et al. (J. Lipid Res. 2006, vol. 47, pp. 1146-1150). […]\nas §1"}, "PKCε": {"target": "T3, PKCε (Homo sapiens, UniProt Q02156)", "T3 construct": "purchased Calbiochem", "T3 sequence (Q02156 1-737)": "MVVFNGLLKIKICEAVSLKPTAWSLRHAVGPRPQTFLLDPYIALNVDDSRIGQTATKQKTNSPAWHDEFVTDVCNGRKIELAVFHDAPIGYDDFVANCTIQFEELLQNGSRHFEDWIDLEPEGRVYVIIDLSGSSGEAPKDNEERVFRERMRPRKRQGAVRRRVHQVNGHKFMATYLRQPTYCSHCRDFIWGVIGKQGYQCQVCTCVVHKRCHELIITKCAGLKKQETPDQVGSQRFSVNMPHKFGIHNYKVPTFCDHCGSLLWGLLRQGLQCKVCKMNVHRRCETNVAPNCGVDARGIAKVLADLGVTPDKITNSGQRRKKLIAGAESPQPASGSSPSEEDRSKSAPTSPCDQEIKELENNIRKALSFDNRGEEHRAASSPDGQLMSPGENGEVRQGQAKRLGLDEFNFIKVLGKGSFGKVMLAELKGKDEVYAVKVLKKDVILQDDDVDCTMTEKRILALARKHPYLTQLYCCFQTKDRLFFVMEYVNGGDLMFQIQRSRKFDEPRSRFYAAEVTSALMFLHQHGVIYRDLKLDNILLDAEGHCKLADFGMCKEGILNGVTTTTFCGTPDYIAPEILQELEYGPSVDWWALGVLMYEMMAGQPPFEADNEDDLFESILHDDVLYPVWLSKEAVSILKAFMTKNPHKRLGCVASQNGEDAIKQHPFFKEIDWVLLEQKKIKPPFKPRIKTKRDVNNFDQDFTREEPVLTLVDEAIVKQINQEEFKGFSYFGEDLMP", "conditions": "cited from earlier work"}, "[2]": {"tested_on": "Endothelin-converting enzyme (ECE)", "experiment": "Endothelin-converting enzyme (ECE) activity in neuroblastoma cells", "format": "cell-based, human", "conditions": "bryostatin 0.27 nM, BR-101 1 μM, BR-111 1 μM", "protocol": "ECE assay. […] neuroblastoma cells were incubated with bryostatin (0.27 nM), BR-101 (DCP-LA) (1 μM), and BR-111 (DHA-CP6) (1 μM). Endothelin-converting enzyme (ECE) was measured fluorimetrically using the method of Johnson and Ahn (Anal. Biochem. (2000), vol. 286, pp. 112-118). A sample of cell homogenate (20 μl) was incubated in 50 mM MES-KOH, pH 6.0, 0.01% C12E10 (polyoxyethylene-10-lauryl ether), and 15 μM McaBK2 (7-Methoxycoumarin-4-acetyl [Ala7-(2,4-Dinitrophenyl)Lys9]-bradykinin trifluoroacetate salt) (Sigma-Aldrich). After 60 min at 37° C., the reaction was quenched by adding trifluoroacetic acid to 0.5%. The sample was diluted to 1.4 ml with water and the fluorescence was measured at ex=334 nm, em=398 nm."}},
  "data": [
    {"smiles": "CCCCCC1CC1CC1CC1CCCCCCCC(=O)O", "note": "(stereo not shown) [BR-101, 2-[(2-pentylcyclopropyl)methyl]cyclopropaneoctanoic acid]", "values": [
      {"measurement": "effect on cell survival", "setting": "[1]", "value": "no effect"},
      {"measurement": "effect on proliferation", "setting": "[1]", "value": "no effect"},
      {"measurement": "effect on PKCδ at higher concentrations", "setting": "PKCδ", "value": "partially inhibited"},
      {"measurement": "effect on PKCα at higher concentrations", "setting": "PKCα; 50-100 μM", "value": "activated"},
      {"measurement": "effect on PKCα", "setting": "PKCα", "value": "not affected"},
      {"measurement": "concentration of maximal effect on PKCε", "setting": "PKCε", "value": 100, "unit": "nM"},
      {"measurement": "ECE activity", "setting": "[2]", "value": "sustained increase"}
    ]}
  ]
}
